Results reported in US7037901B1, “Radiosensitization by indolocarbazole derivatives” (priority 2001, dated 2006).

Tests used:
[1] = test system: human MCF-7, Chinese hamster CHO and DC3F cells; assay: Cytotoxicity (LD50) by clonogenic survival assays in three cell lines; assay type: cell-based; details: 1 h drug treatment; MCF-7, CHO and DC3F cells
Method: (§1) Clonogenic Survival Assay. […] 18–24 h prior to experimental studies.
(§2) Colonies consisting of >50 cells were counted.
We investigated the relationship between the TOP1-mediated DNA damage and the cytotoxic and radiosensitizing effects induced by the six INDO derivatives. The cytotoxicity of various INDO derivatives was determined by exposing logarithmically growing human MCF-7, Chinese hamster CHO and DC3F cells to the individual drug for 1 hr, followed by clonogenic survival assays.

[2] = test system: camptothecin-resistant, TOP1 mutant DC3F/C-10 cells; details: for Cytotoxic effect: DC3F/C10 cells
Method: Clonogenic Survival Assay. For a typical clonogenic survival experiment, stock cultures of exponentially growing cells were trypsinized, rinsed, and plated (5×10^5 cells per dish for DC3F and DC3F/C-10 cells; 1×10^6 cells for MCF-7 cells) into 100-mm petri dishes and incubated at 37° C. 18–24 h prior to experimental studies.
Following various experimental protocols with drug incubation and irradiation, cells were trypsinized, rinsed, counted, and plated for […] colony formation. Depending on the anticipated survival level, 10^2 to 10^5 cells were plated per dose point. When higher cell numbers were plated, large petri dishes were used to avoid possible cell-density effect (100-mm instead of 60-mm petri dishes for cell number≧5×10^4). Depending on the treatment protocols, an equivalent amount of DMSO was added into each of the control radiation alone dishes (final DMSO concentration <0.1%).
Following seven to fourteen days of incubation, colonies were fixed with methanol/acetic acid (3:1), stained with crystal violet. Colonies consisting of >50 cells were counted. All survival points were done in triplicate, and experiments were conducted a minimum of two times. Error bars shown in the figures represent standard deviations (SD) and are shown when larger than the symbol.
The DC3F/C-10 cell line was selected from the Chinese Hamster lung fibroblast DC3F cell line in the presence of 1 μM of camptothecin (Albright, N., Radiat. Res., 112:331–340 (1987), and Chen, Y. N., J. Biol. Chem., 265:10073–10080 (1990)). […] In an attempt to determine the importance of TOP1 in mediating the cytotoxic and radiosensitizing effects by INDO derivatives, clonogenic survival assays were performed in DC3F and DC3F/C10 cells.

[3] = test system: human MCF-7 and Chinese hamster DC3F cells; assay: RS activity summary (MCF-7 and DC3F cells); assay type: cell-based; design: key: +: possess RS activity; −: possess no RS activity; details: MCF-7 (FIG. 2) and DC3F cells (Table 4)
Method: as §1, §2
Irradiation of Cells. Drug-treated and control cells in medium were irradiated using a cobalt-60 source (Eldorado 8; Theratronics, Canada) at a dose rate of 105 cGy/min.
Analysis of Survival Curves. Survival curves were corrected for cytotoxicity induced by drug alone treatment. Sensitization enhancement ratios (SERs) and standard deviations for survival curves were determined at 10% cell survival. Each SER was calculated by dividing the radiation dose to induce 10% cell survival in the absence of radiosensitizer with the radiation dose to induce 10% cell survival in the presence of radiosensitizer.

purified human TOP1 = target: T1, purified human TOP1 (Homo sapiens, UniProt P11387); assay: In vitro drug-stimulated TOP1 cleavage assay (pHOT1 plasmid nicking); assay type: biochemical; design: key to TOP1-mediated DNA cleavage: +++: high activity; ++: modest activity; +: low activity; details: for TOP1-mediated DNA cleavage: in vitro, based on FIG. 4B and 4C; for Potency in inducing TOP1-mediated DNA cleavage (nicking of pHOT1): purified human TOP1, FIG. 4, 4C
T1 construct: purchased TopoGEN, Inc. (Columbus, Ohio)
T1 sequence (P11387 1-765): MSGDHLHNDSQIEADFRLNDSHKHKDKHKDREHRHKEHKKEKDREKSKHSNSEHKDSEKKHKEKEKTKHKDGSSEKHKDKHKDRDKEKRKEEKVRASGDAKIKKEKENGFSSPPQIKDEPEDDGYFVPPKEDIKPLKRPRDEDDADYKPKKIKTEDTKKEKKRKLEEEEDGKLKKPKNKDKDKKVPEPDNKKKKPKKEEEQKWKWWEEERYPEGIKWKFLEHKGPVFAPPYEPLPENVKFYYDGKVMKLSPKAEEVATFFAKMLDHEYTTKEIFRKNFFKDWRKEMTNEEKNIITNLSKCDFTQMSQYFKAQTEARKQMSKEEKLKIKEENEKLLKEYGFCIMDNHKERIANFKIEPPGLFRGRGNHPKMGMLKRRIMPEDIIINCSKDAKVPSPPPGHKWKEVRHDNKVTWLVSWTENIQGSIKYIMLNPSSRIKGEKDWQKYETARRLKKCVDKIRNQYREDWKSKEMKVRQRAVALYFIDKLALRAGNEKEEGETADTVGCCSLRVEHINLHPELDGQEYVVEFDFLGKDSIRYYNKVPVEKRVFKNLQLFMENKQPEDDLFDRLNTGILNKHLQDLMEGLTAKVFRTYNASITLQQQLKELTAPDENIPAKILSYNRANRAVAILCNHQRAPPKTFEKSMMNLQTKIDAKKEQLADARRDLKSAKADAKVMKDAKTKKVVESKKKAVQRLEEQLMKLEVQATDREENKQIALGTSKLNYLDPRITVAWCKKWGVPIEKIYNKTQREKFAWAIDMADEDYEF
Method: In vitro drug-stimulated TOP1 cleavage assay. Drug-stimulated DNA cleavage assay using purified human TOP1 was performed according to the protocol provided by TopoGEN Inc. (Columbus, Ohio) with modifications.
Briefly, supercoiled pHOT1 plasmid DNA (0.2 μg) was incubated with 1 unit of human TOP1 in cleavage buffer (50 mM Tris, pH 7.8, 50 mM KCl, 10 mM MgCl2, 1 mM dithiothreitol, 1 mM EDTA) in the presence of varying concentrations of the drug under study. Following a 30-min incubation at 37° C., the reactions were terminated by adding SDS to 1.0% and proteinase K to 200 μg/ml. The proteinase K treatment continued at 37° C. for 1 h. The sample was then mixed with loading dye (containing sucrose and bromphenol blue) and separated in 1% agarose gel in 0.08 M Tris-phosphate, 0.008 M EDTA, pH 8.0 buffer at room temperature for 16 h.
The gel was initially stained with ethidium bromide ([…]), washed and photographed under UV light. In order to separate the “nicked” from the “relaxed” DNA population, the gel was further run for 4 h in the presence of ethidium bromide before being photographed again under UV light. The photograph was scanned and the intensity of the nicked DNA of each lane was measured using the ImageJ program obtained from the National Institutes of Health (web site: rsb.info.nih.gov/ij/). The intensity of the nicked band of each lane was plotted after the background intensity (pHOT1+TOP1 lane) was subtracted.

[4] = test system: human breast cancer MCF-7 cells; assay: Clonogenic survival assay, drug alone (cytotoxicity) in MCF-7 cells; assay type: cell-based; details: 2 μg/ml for 1 h, read graphically from FIG. 2
Method: as §1, §2

Row | SMILES | Cytotoxicity (based on LD50) [1] | Cytotoxic effect [2] | RS (radiosensitization activity) [3] | TOP1-mediated DNA cleavage (purified human TOP1) | Potency in inducing TOP1-mediated DNA cleavage (nicking of pHOT1) (purified human TOP1) | Percent of cell survival without RT [4] | RR (relative resistance) [2] | Relative resistance of DC3F/C10 cells to the cytotoxic effect [2]
1 | CO[C@H]1[C@H](O)[C@@H](O)[C@H](n2c3c(Cl)cccc3c3c4c(c5c6cccc(Cl)c6[nH]c5c32)C(=O)NC4=O)O[C@@H]1CO [F1, rebeccamycin] | ++ (modest activity, LD50 >4 μg/ml but ≦10 μg/ml) | lack of cytotoxic effect | + | + | less potent group | 94 ± 8% |  | 
2 | COC1C(CO)OC(n2c3c(Cl)cccc3c3c4c(c5c6cccc(Cl)c6[nH]c5c32)C(=O)N(C)C4=O)C(O)C1O (stereo not drawn) [F43] | + (low activity, LD50 >10 μg/ml) | lack of cytotoxic effect | − | + | less potent group | 95 ± 5% |  | 
3 | COC1C(CO)OC(n2c3ccccc3c3c4c(c5c6ccccc6[nH]c5c32)C(=O)NC4=O)C(O)C1O (stereo not drawn) [F71] | +++ (high activity, LD50 ≦4 μg/ml) |  | − | +++ | equivalent activity as camptothecin | 85 ± 10% | 2.7 | 2.7 fold
4 | COC1C(CO)OC(n2c3ccccc3c3c4c(c5c6ccccc6[nH]c5c32)C(=O)N(O)C4=O)C(O)C1O (stereo not drawn) [F7] | ++ (modest activity, LD50 >4 μg/ml but ≦10 μg/ml) |  | + | +++ | equivalent activity as camptothecin | 98 ± 2% | >5.0 | more than 5 fold
5 | COC1C(CO)OC(n2c3ccccc3c3c4c(c5c6ccccc6[nH]c5c32)C(=O)N(C)C4=O)C(O)C1O (stereo not drawn) [F44] | +++ (high activity, LD50 ≦4 μg/ml) |  | − | ++ | less potent group | 100 ± 2% | 2.5 | 2.5 fold
6 | COC1C(CO)OC(n2c3ccccc3c3c4c(c5c6ccccc6[nH]c5c32)C(=O)OC4=O)C(O)C1O (stereo not drawn) [F5] | + (low activity, LD50 >10 μg/ml) | lack of cytotoxic effect | + | + | less potent group | 98 ± 2% |  | 
